Test results from paper PMC9505425, “Targeting of the Mitochondrial TET1 Protein by Pyrrolo[3,2-b]pyrrole Chelators” (International Journal of Molecular Sciences, 2022).
“And” between values parts separate entries of the source, which are not always exact repeats. Equal entries are not always repeated.

Columns and labels:
Caov-3 cells = assay: MTT cytotoxicity assay, Caov-3; assay type: cell-based, human; details: for Cell viability % / IC50: 48 h; for IC50: Caov-3, MTT
Experimental: (§1) The effects of the tested compounds 1–6 on HF-P4, U-118 MG, H1299, BT-20, and Caov-3 cell lines were evaluated by the MTT assay during 48 h treatment (Table 2 and Tables S2–S31). In all tested compounds, we recognized a difference in cytotoxicity between healthy cells (HF-P4) and cancer cell lines (BT-20, Caov-3, and H-1299). […] In the case of ovarian cancer, the authors discovered oncogenic and poor prognosis roles of TET1 in epithelial ovarian carcinoma (EOC). TET1 is believed to demethylate the epigenome and activate numerous oncogenic pathways in EOC. The aforementioned study presents a new mechanism where TET1 contributes to tumor development through collaboration with CK2α [21]. The overexpression of the TET1 protein was also found in triple negative breast cancer and was associated with an activation of PI3K/mTOR pathway and decreased overall survival.
The human ovary adenocarcinoma cell line (Caov-3), purchased from ATCC (Caov-3 (ATCC® HTB-75™), Manassas, VA, USA), was used for the cytotoxicity assay (MTT). Caov-3 cells were cultivated under standard conditions in Dulbecco’s modified Eagle’s medium (ATCC, Manassas, VA, USA) supplemented with 10% FBS and streptomycin (100 μg/mL) at 37 °C at a 5% CO2 atmosphere.
(§2) For the cytotoxicity assay, we used the following cell lines: human glioblastoma cell line U118-MG, human mammary gland/breast cell line BT-20, human ovary adenocarcinoma cell line Caov-3, and non-small-cell lung carcinoma H-1299. As previously mentioned, these cell lines contain a high level of the TET1 protein, which corresponds to a lower overall survival. In addition to these cell cultures, we used the human dermal fibroblast cell line HF-P4 as a healthy control. Determination of cytotoxicity was performed using the MTT [3-(4,5-dimethylthiazol-2-yl)-2,5-diphenyltetrazolium bromide] colorimetric assay. Viable cells from each cell line were cultured in 96-well plates (VWR, Stříbrná Skalice, Czech Republic) at a density of 1.0 × 10^5 cells per well and allowed to grow for 24 h in 200 μL of recommended medium. After a 1-day incubation, the medium was replaced with solutions of compounds 1–6 at concentration ranges of 0.1–20 μM. Each concentration was measured four times within one test, and the entire test was repeated three times. Tested compounds 1–6 were dissolved in DMSO and then diluted with corresponding medium to a final volume of 200 μL (maximum 1% DMSO). After 48 h exposure, cells were treated with 175 μL of MTT solution (P-LAB, Prague, Czech Republic) for 2 h. In the next step, MTT solution was removed, and 125 μL of DMSO (Penta, Prague, Czech Republic) was added to solubilize dark crystals of formazan formed in intact cells, and absorbance was measured at 570 nm by the enzyme-linked immunoabsorbent assay reader Infinite® 200 PRO (Tecan, Männedorf, Switzerland). The final DMSO concentration was smaller than 1% (v/v). The absorbance of untreated cells was considered 100%, and IC50 values were calculated by the GraphPad Prism 8 software. As a parameter for cytotoxicity, we used a concentration that inhibits 50% of cell growth (IC50).

BT-20 cells = assay: MTT cytotoxicity assay, BT-20; assay type: cell-based, human; details: for Cell viability % / IC50: 48 h; for IC50: BT-20, MTT
Experimental: as §1
The human mammary gland/breast cell line (BT-20), purchased from ATCC (BT-20 (ATCC® HTB-19™), Manassas, VA, USA), was used for the cytotoxicity assay (MTT), and BT-20 cells were cultivated under standard conditions in Eagle’s minimum essential medium (ATCC, Manassas, VA, USA) supplemented with 10% FBS and streptomycin (100 μg/mL) at 37 °C at a 5% CO2 atmosphere.
as §2

[1] = Caov-3, 100 nM, repeats, 0.1 µM
[2] = Caov-3, 500 nM, repeats, 0.5 µM
[3] = Caov-3, 750 nM, repeats, 0.75 µM
[4] = Caov-3, 2.5 uM, repeats, 2.5 µM
[5] = Caov-3, 7.5 uM, repeats, 7.5 µM
[6] = Homo sapiens, Caov-3, 48 h, Caov-3, 100 nM, repeats, read-out: Cell viability %
[7] = Homo sapiens, Caov-3, 48 h, Caov-3, 10 uM, repeats, read-out: Cell viability %
[8] = Homo sapiens, Caov-3, 48 h, Caov-3, 15 uM, repeats, read-out: Cell viability %
[9] = Homo sapiens, Caov-3, 48 h, Caov-3, 20 uM, repeats, read-out: Cell viability %
[10] = BT-20, 750 nM, repeats, 0.75 µM
[11] = Homo sapiens, BT-20, 48 h, BT-20, 500 nM, repeats, read-out: Cell viability %
[12] = Homo sapiens, BT-20, 48 h, BT-20, 750 nM, repeats, read-out: Cell viability %
[13] = Homo sapiens, BT-20, 48 h, BT-20, 2.5 uM, repeats, read-out: Cell viability %
[14] = Homo sapiens, BT-20, 48 h, BT-20, 5 uM, repeats, read-out: Cell viability %
[15] = Homo sapiens, BT-20, 48 h, BT-20, 7.5 uM, repeats, read-out: Cell viability %
[16] = Homo sapiens, BT-20, 48 h, BT-20, 10 uM, repeats, read-out: Cell viability %
[17] = Homo sapiens, BT-20, 48 h, BT-20, 15 uM, repeats, read-out: Cell viability %
[18] = Homo sapiens, BT-20, 48 h, BT-20, 20 uM, repeats, read-out: Cell viability %

Row | Structure (SMILES) | melting point [°C] | Cell viability % (Caov-3 cells; [1]) | Cell viability % (Caov-3 cells; [2]) | Cell viability % (Caov-3 cells; [3]) | Cell viability % (Caov-3 cells; Caov-3, 1 uM, repeats, 1 µM) | Cell viability % (Caov-3 cells; [4]) | Cell viability % (Caov-3 cells; Caov-3, 5 uM, repeats, 5 µM) | Cell viability % (Caov-3 cells; [5]) | Cell viability % (Caov-3 cells; Caov-3, 10 uM, repeats, 10 µM) | Cell viability % (Caov-3 cells; Caov-3, 15 uM, repeats, 15 µM) | Cell viability % (Caov-3 cells; Caov-3, 20 uM, repeats, 20 µM) | viability at 0.1 µM (Caov-3 cells; [6]) [%] | viability at 10 µM (Caov-3 cells; [7]) [%] | viability at 15 µM (Caov-3 cells; [8]) [%] | viability at 20 µM (Caov-3 cells; [9]) [%] | IC50 (Caov-3 cells; Homo sapiens) [µM] | Cell viability % (BT-20 cells; BT-20, 100 nM, repeats, 0.1 µM) | Cell viability % (BT-20 cells; BT-20, 500 nM, repeats, 0.5 µM) | Cell viability % (BT-20 cells; [10]) | Cell viability % (BT-20 cells; BT-20, 1 uM, repeats, 1 µM) | other results
1 | Cc1ccc(-n2c(-c3ccc(C(=O)N/N=C/c4cc(F)ccc4O)cc3)cc3c2cc(-c2ccc(C(=O)N/N=C/c4cc(F)ccc4O)cc2)n3-c2ccc(C)cc2)cc1 [Compound 3] | 337 to 338 | 80.39% and 71.14% | 93.5% and 75.39% and 98.76% | 86.6015% and 81.49% and 112.9009% | 86.92% and 97.81% | 89.39% and 98.69% | 67.61% and 86.52% | 83.04% and 61.94% and 104.0087% | 67.37% and 81.12% | 57.51% and 62.97% | 34.98% and 37.9% | 84.4 | 65.4 | 59 | 35.5 | 17.8 | 73.86% and 70.55% | 90.62% and 106.8284% | 90.49% and 101.3318% | 95.2857% and 94.7% | viability at 1 µM (Caov-3 cells; Homo sapiens, Caov-3, 48 h, Caov-3, 1 uM, repeats, read-out: Cell viability %): 89.4%; viability at 2.5 µM (Caov-3 cells; Homo sapiens, Caov-3, 48 h, Caov-3, 2.5 uM, repeats, read-out: Cell viability %): 85.3%; viability at 5 µM (Caov-3 cells; Homo sapiens, Caov-3, 48 h, Caov-3, 5 uM, repeats, read-out: Cell viability %): 70.6%; Cell viability % (BT-20 cells; BT-20, 2.5 uM, repeats, 2.5 µM): 99.34% and 98.89%; Cell viability % (BT-20 cells; BT-20, 5 uM, repeats, 5 µM): 91.79% and 101.4304%; Cell viability % (BT-20 cells; BT-20, 7.5 uM, repeats, 7.5 µM): 71.93% and 72.16%; Cell viability % (BT-20 cells; BT-20, 10 uM, repeats, 10 µM): 60.86% and 57.19%; Cell viability % (BT-20 cells; BT-20, 15 uM, repeats, 15 µM): 53.94% and 48.1349%; Cell viability % (BT-20 cells; BT-20, 20 uM, repeats, 20 µM): 33.39% and 29.51%; viability at 0.1 µM (BT-20 cells; Homo sapiens, BT-20, 48 h, BT-20, 100 nM, repeats, read-out: Cell viability %): 83.4%; viability at 0.5 µM (BT-20 cells; [11]): 95.3%; viability at 0.75 µM (BT-20 cells; [12]): 99.7%; viability at 1 µM (BT-20 cells; Homo sapiens, BT-20, 48 h, BT-20, 1 uM, repeats, read-out: Cell viability %): 104%; viability at 2.5 µM (BT-20 cells; [13]): 99.4%; viability at 5 µM (BT-20 cells; [14]): 85.1%; viability at 7.5 µM (BT-20 cells; [15]): 73.1%; viability at 10 µM (BT-20 cells; [16]): 62.9%; viability at 15 µM (BT-20 cells; [17]): 48.9%; viability at 20 µM (BT-20 cells; [18]): 41%; IC50 (BT-20 cells; Homo sapiens): 13.7 µM
2 | CCN(CC)c1ccc(/C=N/NC(=O)c2ccc(-c3cc4c(cc(-c5ccc(C(=O)N/N=C/c6ccc(N(CC)CC)cc6O)cc5)n4-c4ccc(C)cc4)n3-c3ccc(C)cc3)cc2)c(O)c1 [Compound 2] | 306 to 307 | 105.779% and 93.87% | 78.8105% and 77.85% | 73.37% and 52.9% and 76.29% | 78.5% and 67.16% and 48.54% | 64.6096% and 82.47% and 61.81% | 59.21% and 86.03% and 70.4727% | 79.2% and 67.97% | 51.36% and 52.95% | 50.9752% and 42.33% | 25.3% and 23.25% | 95.3 | 52.1 | 42.8 | 28.4 | 13.3 | 89.53% and 96.38% and 111.3369% | 89.9% and 93.14% | 105.3004% and 102.8159% | 123.7041% and 111.0298% and 97.09% | viability at 0.5 µM (Caov-3 cells; Homo sapiens, Caov-3, 48 h, Caov-3, 500 nM, repeats, read-out: Cell viability %): 76.2%; viability at 7.5 µM (Caov-3 cells; Homo sapiens, Caov-3, 48 h, Caov-3, 7.5 uM, repeats, read-out: Cell viability %): 73.3%; Cell viability % (BT-20 cells; BT-20, 2.5 uM, repeats, 2.5 µM): 100.513% and 96.3761%; Cell viability % (BT-20 cells; BT-20, 5 uM, repeats, 5 µM): 79.33% and 68.98%; Cell viability % (BT-20 cells; BT-20, 7.5 uM, repeats, 7.5 µM): 62.62% and 57%; Cell viability % (BT-20 cells; BT-20, 10 uM, repeats, 10 µM): 57.5% and 51.13%; Cell viability % (BT-20 cells; BT-20, 15 uM, repeats, 15 µM): 49.9% and 44.54%; Cell viability % (BT-20 cells; BT-20, 20 uM, repeats, 20 µM): 24.61% and 32.37%; viability at 0.5 µM (BT-20 cells; [11]): 89.8%; viability at 0.75 µM (BT-20 cells; [12]): 88.9%; viability at 2.5 µM (BT-20 cells; [13]): 98.6%; viability at 5 µM (BT-20 cells; [14]): 73.8%; viability at 7.5 µM (BT-20 cells; [15]): 60.2%; viability at 10 µM (BT-20 cells; [16]): 45%; viability at 15 µM (BT-20 cells; [17]): 46.7%; viability at 20 µM (BT-20 cells; [18]): 28.3%; IC50 (BT-20 cells; Homo sapiens): 11.9 µM
